Experimental data reported in PMC4865845, “A human genome-wide loss-of-function screen identifies effective chikungunya antiviral drugs” (Nature Communications, 2016).

Test system: CHIKV
Format: cell-based, chikungunya virus

| Substance | Score_si4 | Score_si3 | Score_si1 | Score_si2 |
| --- | --- | --- | --- | --- |
| Hs_ROCK1_1 (sense ACGGTTAGAACAAGAGGTAAA; chemistry not given here) | 0.5 |  |  |  |
| s9337 (GCTCTCCAACAATTACTAT; chemistry not given here) [reference compound] | -0.09 |  |  |  |
| Hs_SCLY_1 (sense CTGACTCAGCTTATACCTTAA; chemistry not given here) |  | 1.21 |  |  |
| s16046 (GCACAGATCCTTCCGTTTA; chemistry not given here) [reference compound] |  | -0.45 |  |  |
| Hs_ATP6V0C_2 (CTGGATGTTTATTTATAAAGA; chemistry not given here) |  |  | 3.5 |  |
| s26228 (sense GAACCTCACTGAGCCTTGA; chemistry not given here) |  |  |  | 0.75 |
| Hs_SHC2_11 (sense TCGGTGCTGGTGGAACAGAAA; chemistry not given here) |  |  | 2.36 |  |
| s10858 (sense CCCGCTTTATCGAAGGCAA; chemistry not given here) |  |  |  | 1.05 |
| Hs_SDFR1_11 (sense TACATAAAGATGAGTAATATA; chemistry not given here) [reference compound] | -1.37 |  |  |  |
| Hs_FLJ31164_4 (sense GAGCAACTTGCTGGATGTGAA; chemistry not given here) |  |  |  | 1.07 |
| Hs_FLJ20257_2 (sense CACCAAGTGGGTGCATCTGAA; chemistry not given here) |  |  | 2.26 |  |
| s38779 (CCAAGATGACTGTGAATAA; chemistry not given here) |  | 0.42 |  |  |
| Hs_ZNF261_1 (AAGGTCTTATCTGAAAGGTAA; chemistry not given here) [reference compound] |  |  | -2.35 |  |
| Hs_UBE2C_3 (GCCCTTGTATATTAAATAAAT; chemistry not given here) [reference compound] | -0.41 |  |  |  |
| Hs_CSNK1A1_3 (sense AAGAACTTAATTTCAGTATAA; chemistry not given here) |  | 1.65 |  |  |
| Hs_KCTD10_1 (sense AAGGCTTTGTTTAGGGATCAA; chemistry not given here) |  |  | 2.04 |  |
| Hs_IRAK1_6 (sense TCCCATCGCCATGCAGATCTA; chemistry not given here) |  | 1.57 |  |  |
| s18076 (GAAATACCCTATTACCAAA; chemistry not given here) [reference compound] |  | -0.61 |  |  |
| s18239 (CGGTGACTCTTTATGCACA; chemistry not given here) |  |  |  | 1.37 |
| s26873 (sense CTTCGAGACCGGTTCAAGA; chemistry not given here) |  |  | 2.15 |  |
| Hs_POLR1A_2 (TCGGGAGGAATTAGAACAATA; chemistry not given here) |  |  |  | 1.23 |
| Hs_APEX2_5 (ACGCTGCAGCACAACAATCAA; chemistry not given here) [reference compound] | -0.1 |  |  |  |
| s17187 (GGATTGACCTCACCCAGAA; chemistry not given here) |  |  | 2.03 |  |
| Hs_FASN_3 (CCGCTACATGGCCCAAGGGAA; chemistry not given here) |  |  | 2.39 |  |
| Hs_PCBP1_2 (TAAGAGTGGAATGTTAATAAA; chemistry not given here) |  |  | 1.94 |  |
| Hs_GAP43_1 (sense CCGGCTCAGCTGAGACAGAAA; chemistry not given here) |  |  | 2.5 |  |
| Hs_CNOT3_2 (sense ACGGCTGAGGGACCAAATCAA; chemistry not given here) |  | 1.32 |  |  |

| Substance | Score_si4 | Score_si3 | Score_si1 | Score_si2 |
| --- | --- | --- | --- | --- |
| Hs_THRAP6_1 (sense ATGAAAGATTATTGTAATAAA; chemistry not given here) [reference compound] |  |  |  | -1.47 |
| s195938 (sense ATTTATCTCTGCATCGACA; chemistry not given here) [reference compound] |  | -0.51 |  |  |
| Hs_PTBP1_2 (sense ATGGTATGAGTGTAATCTAAA; chemistry not given here) [reference compound] |  |  | -1.35 |  |
| Hs_UQCRFS1_1 (CAGCATGATCTAGATCGAGTA; chemistry not given here) |  |  | 3.18 |  |
| Hs_PMPCB_4 (TACATTTATAATAGGAGTCCA; chemistry not given here) | 0.83 |  |  |  |
| s81 (sense GGATGATTTAGAATTGTCA; chemistry not given here) |  | 2.08 |  |  |
| Hs_GSTP1_2 (sense CCAGATCTCCTTCGCTGACTA; chemistry not given here) |  |  | 2.46 |  |
| Hs_TRAF2_5 (CACGAGGGCATATATGAAGAA; chemistry not given here) [reference compound] | -0.76 |  |  |  |
| Hs_PSD3_1 (sense CTCCATTGTCTTACTAACAAA; chemistry not given here) [reference compound] |  |  | -3.63 |  |
| Hs_MGC11102_2 (CAGGTGGTTTGTTCTTTCTTA; chemistry not given here) |  |  | 1.25 |  |
| s33489 (GGACTTCTGAAAATTCGCA; chemistry not given here) |  |  |  | 1.9 |
| Hs_DKFZP564C186_2 (CACGGACAGTGCTGCATTCAA; chemistry not given here) |  | 1.17 |  |  |
| Hs_PHF10_4 (TCCAGGGAAGACAGAAATCAA; chemistry not given here) |  | 0.57 |  |  |
| Hs_SLC6A19_4 (sense CCAGAAGATCTCCTACCCGAA; chemistry not given here) |  |  |  | 0.84 |
| Hs_RPS6KC1_1 (sense CCGGGTTGTTTCACGAAGAAA; chemistry not given here) [reference compound] |  |  |  | -1.09 |
| s30117 (GGTCTTTGGTGGTGTACAA; chemistry not given here) |  | 0.96 |  |  |
| Hs_EEF2_2 (TGCCGTTTCTTTCAATATTTA; chemistry not given here) |  |  | 2.07 |  |
| s34678 (GAGTTTAAGATGATGCCTA; chemistry not given here) |  | 0.6 |  |  |
| s21626 (sense GGCAGTTGATTGTGGATGA; chemistry not given here) | 0.37 |  |  |  |
| s9666 (CGTGTACTCTGTTTCGACA; chemistry not given here) [reference compound] | -0.83 |  |  |  |
| s195939 (sense GCGGCTGATTTATCTCTGC; chemistry not given here) [reference compound] | -0.22 |  |  |  |
| Hs_SREBF2_3 (sense CTGCAATTTGTCAGTAATCAA; chemistry not given here) |  |  | 2.21 |  |
| s5031 (sense CCGTGGACCTGATCATCAA; chemistry not given here) |  |  |  | 2.04 |
| s7007 (sense GGATCGGGTTCTAAAGGAA; chemistry not given here) |  |  |  | 1.87 |
| Hs_LOH12CR1_1 (sense CCCGATGTCATCAAGTTGCAA; chemistry not given here) |  |  | 2.42 |  |
| Hs_RAB3D_3 (sense CTGGAACTATGGACCACATTA; chemistry not given here) | 0.77 |  |  |  |
| s617 (sense GGTCTTGGAGGGAATCCTA; chemistry not given here) |  |  |  | 1.33 |

| Substance | Score_si4 | Score_si3 | Score_si1 | Score_si2 |
| --- | --- | --- | --- | --- |
| Hs_CDK4_1 (sense CCGAACTGACCGGGAGATCAA; chemistry not given here) |  |  |  | 1.51 |
| Hs_PEX19_1 (ATGGGTGGCTTCATGAATTAA; chemistry not given here) |  |  | 1.26 |  |
| Hs_HSPE1_4 (sense CTGAAATAAGTCACTATTGAA; chemistry not given here) | 1.81 |  |  |  |
| s20631 (sense GGACGGAAGCGAAAATCGA; chemistry not given here) |  | 1.89 |  |  |
| s27209 (sense GGGTATAGAGGATAACCAA; chemistry not given here) [reference compound] |  |  |  | -0.58 |
| Hs_SAFB_3 (sense CTGCCATATTGTAGCTCAATA; chemistry not given here) |  |  | 1.4 |  |
| s17301 (GCCTGGTATTTTGAAATCA; chemistry not given here) |  | 0.7 |  |  |
| s11745 (sense CACTCTCTGTAAGCATATA; chemistry not given here) |  |  |  | 1.42 |
| Hs_DOK6_1 (TACGCCAAACCTGGATATTTA; chemistry not given here) [reference compound] |  | -0.32 |  |  |
| Hs_SULF1_3 (sense CTGGTGTTTGCGTACAGTTAA; chemistry not given here) [reference compound] | -0.77 |  |  |  |
| s35401 (GGAACAAACTAGCCCTCAA; chemistry not given here) |  |  |  | 0.91 |
| s9031 (CGACGACAGCTACTGGTTT; chemistry not given here) | 0.9 |  |  |  |
| Hs_FTSJ2_1 (sense CAGAGGAATTCCAGAATGTAA; chemistry not given here) |  |  |  | 1.91 |
| Hs_MAP2K2_9 (TTCCAGGAGTTTGTCAATAAA; chemistry not given here) | 0.51 |  |  |  |
| s28294 (sense CATTCTGTGGTGAAACATT; chemistry not given here) |  |  | 1.28 |  |
| Hs_YEATS4_3 (AAAGGGTGTTACTATCGTTAA; chemistry not given here) |  | 0.92 |  |  |
| Hs_SIMP_2 (sense CTGGCTTGTTAGGATATATAA; chemistry not given here) [reference compound] |  |  | -2.63 |  |
| s17592 (GCAACTCTCCTTCACCAAT; chemistry not given here) [reference compound] | -0.08 |  |  |  |
| s31180 (CCATAGATGAGAAGCGGTT; chemistry not given here) |  | 1.93 |  |  |
| Hs_KRTHA2_1 (sense CAGATGGAGGAGCTTAACCAA; chemistry not given here) |  |  | 1.15 |  |
| s18077 (CCTGTTCATTGATCGAACA; chemistry not given here) [reference compound] |  | -0.59 |  |  |
| Hs_ASH2L_3 (TTGGAACACCCGTTTAACAAA; chemistry not given here) |  |  | 1.11 |  |
| s25487 (sense AGTATTTGTTGGTTCATAA; chemistry not given here) |  |  |  | 1.54 |
| Hs_NPEPL1_2 (CACCTTCCTCGAGGAGATTAA; chemistry not given here) |  |  |  | 1.71 |
| Hs_CNOT1_2 (sense CCAAGTTTGAATTTCAAGGAA; chemistry not given here) |  |  | 2.81 |  |
